Test results published in publication PMC7932537, “Quantitative profiling of protease specificity” (PLoS Computational Biology, 2021).

What was measured:
[1] = target: T1, MMP-2 (Homo sapiens, UniProt P08253); assay: K(obs) of individual phage substrates (set of 1369); format: biochemical; settings: MMP2
T1 sequence (P08253 110-660): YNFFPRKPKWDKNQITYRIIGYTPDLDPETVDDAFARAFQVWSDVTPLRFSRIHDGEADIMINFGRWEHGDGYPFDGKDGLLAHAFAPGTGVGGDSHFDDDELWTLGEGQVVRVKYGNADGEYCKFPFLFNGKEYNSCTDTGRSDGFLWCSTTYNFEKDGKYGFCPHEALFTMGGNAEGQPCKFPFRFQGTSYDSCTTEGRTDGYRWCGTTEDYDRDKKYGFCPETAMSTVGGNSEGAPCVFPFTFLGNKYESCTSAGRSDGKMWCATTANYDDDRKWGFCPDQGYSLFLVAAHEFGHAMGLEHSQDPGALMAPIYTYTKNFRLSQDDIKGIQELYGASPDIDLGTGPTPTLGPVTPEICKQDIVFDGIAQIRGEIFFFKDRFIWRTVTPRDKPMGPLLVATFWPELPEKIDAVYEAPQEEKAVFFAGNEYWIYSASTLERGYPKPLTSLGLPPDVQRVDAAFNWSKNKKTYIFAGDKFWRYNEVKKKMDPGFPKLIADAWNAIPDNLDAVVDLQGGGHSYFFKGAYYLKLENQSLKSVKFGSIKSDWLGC

[2] = test system: MMP-2; assay: Substrate phage display with NGS: relative probability (RP) of P3-P1' tetramer clusters; format: biochemical, human; settings: MMP2;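 also: ratio of tetramer probability after protease selection to that in naive phage library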
[3] = target: MMP-9 (Homo sapiens, UniProt P14780); assay: K(obs) of individual phage substrates (set of 1369); format: biochemical; settings: MMP9
[4] = individual phage substrate of the set of 1369 peptides, cleavage position marked by '-'
[5] = RP of the P3-P1' tetramer contained in the substrate
[6] = individual phage substrate of the set of 1369 peptides, dash in the sequence marks the cleavage position
[7] = individual phage substrates, set of 1369 peptides, cleavage position marked by hyphen in sequence
[8] = RP of the P3-P1' tetramer contained in the substrate (substrate phage display with NGS)
[9] = individual phage substrates, set of 1369 peptides, hyphen in sequence marks cleavage position

Chain of MMP-9 (P14780 94-707): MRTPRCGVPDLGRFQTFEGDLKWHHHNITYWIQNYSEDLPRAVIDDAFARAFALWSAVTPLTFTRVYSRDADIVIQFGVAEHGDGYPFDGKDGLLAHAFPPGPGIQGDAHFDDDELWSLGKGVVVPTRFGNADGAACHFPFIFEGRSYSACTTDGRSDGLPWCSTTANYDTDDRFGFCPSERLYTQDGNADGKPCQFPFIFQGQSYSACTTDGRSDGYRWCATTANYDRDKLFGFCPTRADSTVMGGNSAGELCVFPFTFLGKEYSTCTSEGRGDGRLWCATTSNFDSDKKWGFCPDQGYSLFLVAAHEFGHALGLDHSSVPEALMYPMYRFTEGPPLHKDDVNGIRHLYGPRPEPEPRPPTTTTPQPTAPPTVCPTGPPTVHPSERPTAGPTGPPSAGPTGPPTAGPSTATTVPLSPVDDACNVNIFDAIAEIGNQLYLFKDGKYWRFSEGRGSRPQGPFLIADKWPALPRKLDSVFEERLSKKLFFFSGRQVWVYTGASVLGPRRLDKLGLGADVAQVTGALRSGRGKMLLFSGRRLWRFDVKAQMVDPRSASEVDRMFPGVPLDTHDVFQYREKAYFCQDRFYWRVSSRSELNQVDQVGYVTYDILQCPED

| Substance | Kobs [1, 4] [M⁻¹ s⁻¹] | Kobs [3, 6] [M⁻¹ s⁻¹] | Kobs [1, 7] [M⁻¹ s⁻¹] | Kobs [3, 9] [M⁻¹ s⁻¹] | relative probability (RP) [2, 5] | relative probability (RP) [2, 8] |
| --- | --- | --- | --- | --- | --- | --- |
| SGMGH-LLHTA | 654.784 | 0 |  |  | 26.7019 |  |
| VRVLH-LTASG |  |  | 8321.48 | 8321.48 |  | 19.5348 |
| WPMAK-LTASG | 12792.1 | 451.441 |  |  | 21.5229 |  |
| EIWLP-ITASG |  |  | 951.362 | 142.481 |  | 0.6666 |
| SGWSG-MMATA |  |  | 1112.44 | 171.876 |  | 18.3143 |
| HVWMN-LTASG | 418.952 | 619.843 |  |  | 0 |  |
| GDMRH-LSTAS |  |  | 1561.44 | 799.117 |  | 14.413 |
| EVARA-MTASG | 7015.91 | 5090.5 |  |  | 25.2992 |  |
| VLWRA-LTASG | 12792.1 | 12792.1 |  |  | 22.4074 |  |
| GNSWG-LRTAS | 292.668 | 690.17 |  |  | 0.1389 |  |
| PGPES-LTASG |  |  | 10866.7 | 12792.1 |  | 26.0767 |
| GYPRN-IGTAS | 8941.32 | 7386.83 |  |  | 31.9621 |  |
| ATIAH-LTASG |  |  | 12792.1 | 1465.65 |  | 32.9345 |
| TFARS-LTASG |  |  | 8941.32 | 5889.62 |  | 17.186 |
| SGVRF-LMNTA | 1418.96 | 9740.44 |  |  | 15.0438 |  |
| TRLAH-VTASG |  |  | 1660.66 | 0 |  | 11.7405 |
| TVPQM-ITASG | 5269.78 | 7815.03 |  |  | 16.6558 |  |
| HYPLN-STASG | 4335.13 | 8321.48 |  |  | 18.9358 |  |
| RLANN-LTASG | 5461.43 | 484.315 |  |  | 18.8719 |  |
| GSPMH-LITAS |  |  | 6688.74 | 9740.44 |  | 30.095 |

The next lines start with results.

| Kobs [1, 4] [M⁻¹ s⁻¹] | Kobs [3, 6] [M⁻¹ s⁻¹] | Kobs [1, 7] [M⁻¹ s⁻¹] | Kobs [3, 9] [M⁻¹ s⁻¹] | Substance | relative probability (RP) [2, 5] | relative probability (RP) [2, 8] |
| --- | --- | --- | --- | --- | --- | --- |
| 619.843 | 6688.74 |  |  | SGVWN-LIMTA | 14.4124 |  |
| 10866.7 | 12792.1 |  |  | SGPTA-LRATA | 32.8941 |  |
| 12792.1 | 12792.1 |  |  | LSVFW-LTASG | 13.7679 |  |
| 12792.1 | 12792.1 |  |  | GWPAG-LTTAS | 36.0156 |  |
|  |  | 6396.07 | 10866.7 | SLPRP-LTASG |  | 34.3303 |
|  |  | 3079.62 | 323.705 | NMWAH-LTASG |  | 7.453 |
|  |  | 6688.74 | 386.839 | NTSAW-LTASG |  | 18.9346 |
|  |  | 3438.54 | 0 | TVLNS-LTASG |  | 18.3633 |
|  |  | 12792.1 | 12792.1 | VPPEA-ITASG |  | 22.5231 |
| 4335.13 | 5090.5 |  |  | KSPSL-YTASG | 18.1013 |  |
| 1373.05 | 0 |  |  | SGVSF-LQQTA | 5.918 |  |
|  |  | 726.013 | 0 | GKLKH-LQTAS |  | 11.1441 |
